{"source": "patent US9359451B2", "about": "“Methods and compositions for treating trauma-hemorrhage using estrogen and derivatives thereof” (THE UAB RESEARCH FOUNDATION, priority 2012, dated 2016)", "test_system": "splenic macrophages (sMΦ) and peritoneal macrophages (pMΦ)", "test": "Splenic and peritoneal macrophage cytokine release after trauma-hemorrhage (ex vivo, LPS)", "type": "in vivo, mouse", "details": "24 h after trauma-hemorrhage, LPS 48 h", "procedure": "Experimental groups. Ovariectomy was performed in female CBA/J mice 2 wk before trauma-hemorrhage using two dorsolateral incisions. […] Two weeks after ovariectomy, the animals were divided into four groups. Groups 1 and 2 consisted of sham-operated ovariectomized females, which were neither hemorrhaged nor resuscitated. Animals in groups 3 and 4 consisted of ovariectomized females, which were subjected to the trauma-hemorrhage procedure. Immediately before initiation of fluid resuscitation, animals in groups 1 and 3 received a subcutaneous injection of vehicle ([…] corn oil), and animals in groups 2 and 4 were treated with E2 ([…]/25 g body wt dissolved in […] corn oil). Each group consisted of 7-8 animals.\nTrauma-hemorrhage procedure. Mice in the trauma-hemorrhage groups were lightly anesthetized with methoxyflurane (Metofane; Pitman Moore, Mundelein, Ill.) and restrained in a supine position, and a 2.5-cm midline laparotomy (i.e., soft tissue trauma induced) was performed, which was then closed aseptically in two layers using 6-0 Ethilon sutures (Ethicon, Somerville, N.J.). Both femoral arteries were then aseptically cannulated with polyethylene-10 tubing (Clay-Adams, Parsippany, N.J.) using a minimal dissection technique, and the animals were allowed to awaken. Blood pressure was constantly monitored by attaching one of the catheters to a blood pressure analyzer (Micro-Med, Louisville, Ky.). Lidocaine was applied to the incision sites to provide analgesia during the study period. Upon awakening, the animals were bled through the other catheter to a mean arterial blood pressure of 35±5 mmHg (mean arterial blood pressure prehemorrhage was 95±5 mmHg), which was maintained for 90 min. At the end of that procedure, the animals were resuscitated with four times the shed blood volume in the form of lactated Ringer solution. The catheters were then removed, the vessels were ligated, and the groin incisions were closed. Sham-operated animals underwent the same surgical procedure, which included ligation of both femoral arteries, but neither hemorrhage nor fluid resuscitation was carried out. There was no mortality observed in this model of trauma-hemorrhage.\nPreparation of sMΦ and pMΦ culture. Spleens were harvested aseptically, and sMΦ cultures were established as previously described in detail (Zellweger 1996). Resident pMΦ were harvested by peritoneal lavage at 24 h after sham operation or trauma-hemorrhage and resuscitation, and monolayers were established as previously described (Ayala 1990). The monolayers of sMΦ and pMΦ (1×10^6 cells/ml) were stimulated with […] of lipopolysaccharide W/ml Click's medium containing 10% heat-inactivated FBS for 48 h at 37° C., 5% CO2, and 90% humidity to assess the cells' ability to release cytokines (Lipopolysaccharide W was from Escherichia coli 055:B5, Difco Laboratories, Detroit, Mich.) At the end of the incubation period, the culture supernatants were removed, centrifuged at 300 g for 15 min, divided into aliquots, and stored.\nIL-10 concentrations in macrophage and splenocyte supernatants and IFN-γ levels in the splenocyte supernatants were determined using sandwich-enzyme-linked immunosorbent assay technique (ELISA) according to the manufacturer's recommendations (BD OptEIA ELISA set; BD Pharmingen, San Diego, Calif.).\nIL-6 activity was determined by assessing the 72-h proliferation of the IL-6-dependent murine B cell hybridoma 7TD1 stimulated by serial dilutions of sMΦ and pMΦ supernatants (Ayala 1992). For the last 3 h of incubation, […] of a 3-(4,5-dimethylthiazol-2-yl)-2,5-diphenyltetrazolium bromide solution (5 mg/ml in RPMI 1640; Sigma Chemical, St. Louis, Mo.) was added to each well. The amount of dark blue formazan crystal formation was then measured spectrophotometrically. […]", "data": [{"smiles": "C[C@]12CC[C@@H]3c4ccc(O)cc4CC[C@H]3[C@@H]1CC[C@@H]2O", "note": "[17β-estradiol]", "values": [{"measurement": "pMΦ IL-1β release", "result": "partial restoration of pMΦ IL-1β release"}, {"measurement": "pMΦ IL-6 production", "result": "maintained at sham levels"}, {"measurement": "pMΦ IL-10 production", "result": "not affected by either trauma-hemorrhage or E2 treatment"}, {"measurement": "sMΦ IL-6 release", "result": "did not influence IL-6 release"}, {"measurement": "sMΦ IL-10 release", "result": "significantly reduced IL-10 release"}, {"measurement": "sMΦ IL-12 production", "result": "prevented the depression in sMΦ IL-12 production"}]}]}
